{"source": "patent US20110152314A1", "about": "“USE OF TENATOPRAZOLE FOR THE TREATMENT OF GASTROESOPHAGEAL REFLUX DISEASE” (SIDEM PHARMA, priority 2002, published 2011)", "assay_type_in_all_cases": "in vivo, human", "key": {"[1]": {"system": "patients with gastroesophageal reflux symptoms", "assay": "Clinical treatment of patients with gastroesophageal reflux symptoms;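 for Evolution of symptom: one to three plus signs grade improvement from moderate to highly favorable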", "conditions": "20 mg tablet daily", "protocol": "(§1) Some clinical examples are given below, which show the effects of treatment on patients suffering from gastroesophageal reflux or dyspepsia, treated by the oral administration of tenatoprazole.\nTreatment consisted in the daily administration of a tablet containing 20 mg tenatoprazole."}, "[2]": {"system": "patients with symptoms of functional dyspepsia", "assay": "Clinical treatment of patients with symptoms of functional dyspepsia", "parameters": "Safety: key: +: moderate; ++: ranging from moderate to highly favorable; +++: highly favorable", "conditions": "oral", "excerpt": "as §1"}, "[3]": {"system": "patients suffering from erosive and/or ulcerative type reflux esophagitis", "assay": "Open-labeled studies in reflux esophagitis: endoscopic improvement rating", "protocol": "Two open-labeled studies have been conducted in order to evaluate the efficacy and safety of tenatoprazole for gastroesophageal reflux disease. 22 patients in the first study and 24 patients in the second study, of more than 20 years of age, suffering from erosive and/or ulcerative type reflux esophagitis (diagnosed by endoscopy), received tablets containing enteric-coated granules with 10 mg of tenatoprazole.\nThe tablets were administered orally once a day after breakfast, for a treatment period of 8 weeks, which was continued up to 12 weeks in some cases. Healing was controlled by endoscopic examination 4 weeks and 8 weeks after the first administration, or at the withdrawal from the study, the disease stages were evaluated according to the Savary and Miller classification and the treatment was stopped when healing was confirmed. The condition was evaluated as healed when disappearance of erosion was confirmed."}, "[4]": {"conditions": "patient 30, nocturnal heartburn, 8 weeks"}, "[5]": {"conditions": "patient 25, epigastric discomfort, 12 weeks"}, "[6]": {"conditions": "patient 28, distension, 4 weeks"}, "[7]": {"conditions": "patient 34, early satiety, 8 weeks"}, "[8]": {"conditions": "patient 36, epigastric discomfort, 8 weeks"}, "[9]": {"conditions": "patient 38, epigastric pain, 8 weeks"}, "[10]": {"conditions": "patient 38, sensation of gastric fullness, 8 weeks"}, "[11]": {"conditions": "patient 39, epigastric pain, 4 weeks"}, "[12]": {"conditions": "patient 42, early satiety, 6 weeks"}, "[13]": {"conditions": "patient 45, epigastric pain, 6 weeks"}, "[14]": {"conditions": "1st study, 4 weeks, 10 mg tablet orally once a day"}, "[15]": {"conditions": "1st study, 8 weeks, 10 mg tablet orally once a day"}, "[16]": {"conditions": "1st study, final, 10 mg tablet orally once a day"}, "[17]": {"conditions": "2nd study, 4 weeks, 10 mg tablet orally once a day"}, "[18]": {"conditions": "2nd study, 8 weeks, 10 mg tablet orally once a day"}, "[19]": {"conditions": "2nd study, 12 weeks, 10 mg tablet orally once a day"}, "[20]": {"conditions": "2nd study, final, 10 mg tablet orally once a day"}}}
{"smiles": "COc1ccc2[nH]c([S+]([O-])Cc3ncc(C)c(OC)c3C)nc2n1", "note": "(stereo not drawn) [tenatoprazole, 5-methoxy-2-[[(4-methoxy-3,5-dimethyl-2-pyridyl)methyl]sulfinyl]imidazo[4,5-b]pyridine]", "values": [{"measurement": "cases in which treatment was perfectly tolerated", "setting": "[1]; patients of Table 2", "result": "12 out of 14"}, {"measurement": "evolution observed in symptoms, overall", "setting": "[1]; patients of Table 2", "result": "generally very favorable"}, {"measurement": "Evolution of symptom", "setting": "[1]; patient 25, heartburn, 12 weeks", "result": "+++"}, {"measurement": "Evolution of symptom", "setting": "[1]; patient 28, nocturnal heartburn, 4 weeks", "result": "+++"}, {"measurement": "Evolution of symptom", "setting": "[1]; [4]", "result": "+++"}, {"measurement": "Evolution of symptom", "setting": "[1]; patient 34, heartburn, 8 weeks", "result": "+++"}, {"measurement": "Evolution of symptom", "setting": "[1]; patient 35, nocturnal heartburn, 4 weeks", "result": "++"}, {"measurement": "Evolution of symptom", "setting": "[1]; patient 36, regurgitation, 8 weeks", "result": "+++"}, {"measurement": "Evolution of symptom", "setting": "[1]; patient 38, heartburn, 8 weeks", "result": "+++"}, {"measurement": "Evolution of symptom", "setting": "[1]; patient 38, nocturnal heartburn, 8 weeks", "result": "+++"}, {"measurement": "Evolution of symptom", "setting": "[1]; patient 39, nocturnal heartburn, 4 weeks", "result": "+"}, {"measurement": "Evolution of symptom", "setting": "[1]; patient 41, heartburn, 8 weeks", "result": "+++"}, {"measurement": "Evolution of symptom", "setting": "[1]; patient 42, heartburn, 8 weeks", "result": "++"}, {"measurement": "Evolution of symptom", "setting": "[1]; patient 45, nocturnal heartburn, 8 weeks", "result": "+++"}, {"measurement": "Evolution of symptom", "setting": "[1]; patient 47, nocturnal heartburn, 8 weeks", "result": "++"}, {"measurement": "Evolution of symptom", "setting": "[1]; patient 49, regurgitation, 8 weeks", "result": "++"}, {"measurement": "Evolution of symptom", "setting": "[2]; [5]", "result": "++"}, {"measurement": "Safety", "setting": "[2]; [5]", "result": "+++"}, {"measurement": "Evolution of symptom", "setting": "[2]; [6]", "result": "+"}, {"measurement": "Safety", "setting": "[2]; [6]", "result": "+++"}, {"measurement": "Evolution of symptom", "setting": "[2]; [4]", "result": "+++"}, {"measurement": "Safety", "setting": "[2]; [4]", "result": "+++"}, {"measurement": "Evolution of symptom", "setting": "[2]; [7]", "result": "+++"}, {"measurement": "Safety", "setting": "[2]; [7]", "result": "+++"}, {"measurement": "Evolution of symptom", "setting": "[2]; patient 35, heartburn, 8 weeks", "result": "+++"}, {"measurement": "Safety", "setting": "[2]; patient 35, heartburn, 8 weeks", "result": "+++"}, {"measurement": "Evolution of symptom", "setting": "[2]; [8]", "result": "+++"}, {"measurement": "Safety", "setting": "[2]; [8]", "result": "++"}, {"measurement": "Evolution of symptom", "setting": "[2]; [9]", "result": "+++"}, {"measurement": "Safety", "setting": "[2]; [9]", "result": "++"}, {"measurement": "Evolution of symptom", "setting": "[2]; [10]", "result": "+++"}, {"measurement": "Safety", "setting": "[2]; [10]", "result": "+++"}, {"measurement": "Evolution of symptom", "setting": "[2]; [11]", "result": "++"}, {"measurement": "Safety", "setting": "[2]; [11]", "result": "++"}, {"measurement": "Evolution of symptom", "setting": "[2]; patient 41, heartburn, 6 weeks", "result": "+++"}, {"measurement": "Safety", "setting": "[2]; patient 41, heartburn, 6 weeks", "result": "+++"}, {"measurement": "Evolution of symptom", "setting": "[2]; [12]", "result": "++"}, {"measurement": "Safety", "setting": "[2]; [12]", "result": "+++"}, {"measurement": "Evolution of symptom", "setting": "[2]; patient 44, nausea, 10 weeks", "result": "+++"}, {"measurement": "Safety", "setting": "[2]; patient 44, nausea, 10 weeks", "result": "+++"}, {"measurement": "Evolution of symptom", "setting": "[2]; [13]", "result": "+++"}, {"measurement": "Safety", "setting": "[2]; [13]", "result": "++"}, {"measurement": "Evolution of symptom", "setting": "[2]; patient 47, nausea, 4 weeks", "result": "++"}, {"measurement": "Safety", "setting": "[2]; patient 47, nausea, 4 weeks", "result": "+++"}, {"measurement": "Evolution of symptom", "setting": "[2]; patient 49, nausea, 8 weeks", "result": "++"}, {"measurement": "Safety", "setting": "[2]; patient 49, nausea, 8 weeks", "result": "+++"}, {"measurement": "Endoscopic improvement rating, patients rated A healed", "setting": "[3]; [14]", "result": 20}, {"measurement": "Endoscopic improvement rating, patients rated B markedly decreased", "setting": "[3]; [14]", "result": 1}, {"measurement": "Endoscopic improvement rating, patients rated C moderately decreased", "setting": "[3]; [14]", "result": 0}, {"measurement": "Endoscopic improvement rating, patients rated D slightly decreased", "setting": "[3]; [14]", "result": 0}, {"measurement": "Endoscopic improvement rating, patients rated E not changed", "setting": "[3]; [14]", "result": 1}, {"measurement": "Endoscopic improvement rating, patients rated F aggravated", "setting": "[3]; [14]", "result": 0}, {"measurement": "Endoscopic improvement rating, patients rated A healed", "setting": "[3]; [15]", "result": 21}, {"measurement": "Endoscopic improvement rating, patients rated B markedly decreased", "setting": "[3]; [15]", "result": 0}, {"measurement": "Endoscopic improvement rating, patients rated C moderately decreased", "setting": "[3]; [15]", "result": 0}, {"measurement": "Endoscopic improvement rating, patients rated D slightly decreased", "setting": "[3]; [15]", "result": 0}, {"measurement": "Endoscopic improvement rating, patients rated E not changed", "setting": "[3]; [15]", "result": 1}, {"measurement": "Endoscopic improvement rating, patients rated F aggravated", "setting": "[3]; [15]", "result": 0}, {"measurement": "Endoscopic improvement rating, patients rated A healed", "setting": "[3]; [16]", "result": 21}, {"measurement": "Endoscopic improvement rating, patients rated B markedly decreased", "setting": "[3]; [16]", "result": 0}, {"measurement": "Endoscopic improvement rating, patients rated C moderately decreased", "setting": "[3]; [16]", "result": 0}, {"measurement": "Endoscopic improvement rating, patients rated D slightly decreased", "setting": "[3]; [16]", "result": 0}, {"measurement": "Endoscopic improvement rating, patients rated E not changed", "setting": "[3]; [16]", "result": 1}, {"measurement": "Endoscopic improvement rating, patients rated F aggravated", "setting": "[3]; [16]", "result": 0}, {"measurement": "Endoscopic improvement rating, patients rated A healed", "setting": "[3]; [17]", "result": 23}, {"measurement": "Endoscopic improvement rating, patients rated B markedly decreased", "setting": "[3]; [17]", "result": 2}, {"measurement": "Endoscopic improvement rating, patients rated C moderately decreased", "setting": "[3]; [17]", "result": 0}, {"measurement": "Endoscopic improvement rating, patients rated D slightly decreased", "setting": "[3]; [17]", "result": 0}, {"measurement": "Endoscopic improvement rating, patients rated E not changed", "setting": "[3]; [17]", "result": 0}, {"measurement": "Endoscopic improvement rating, patients rated F aggravated", "setting": "[3]; [17]", "result": 0}, {"measurement": "Endoscopic improvement rating, patients rated A healed", "setting": "[3]; [18]", "result": 24}, {"measurement": "Endoscopic improvement rating, patients rated B markedly decreased", "setting": "[3]; [18]", "result": 0}, {"measurement": "Endoscopic improvement rating, patients rated C moderately decreased", "setting": "[3]; [18]", "result": 0}, {"measurement": "Endoscopic improvement rating, patients rated D slightly decreased", "setting": "[3]; [18]", "result": 0}, {"measurement": "Endoscopic improvement rating, patients rated E not changed", "setting": "[3]; [18]", "result": 0}, {"measurement": "Endoscopic improvement rating, patients rated F aggravated", "setting": "[3]; [18]", "result": 0}, {"measurement": "Endoscopic improvement rating, patients rated A healed", "setting": "[3]; [19]", "result": 24}, {"measurement": "Endoscopic improvement rating, patients rated B markedly decreased", "setting": "[3]; [19]", "result": 0}, {"measurement": "Endoscopic improvement rating, patients rated C moderately decreased", "setting": "[3]; [19]", "result": 0}, {"measurement": "Endoscopic improvement rating, patients rated D slightly decreased", "setting": "[3]; [19]", "result": 0}, {"measurement": "Endoscopic improvement rating, patients rated E not changed", "setting": "[3]; [19]", "result": 0}, {"measurement": "Endoscopic improvement rating, patients rated F aggravated", "setting": "[3]; [19]", "result": 0}, {"measurement": "Endoscopic improvement rating, patients rated A healed", "setting": "[3]; [20]", "result": 24}, {"measurement": "Endoscopic improvement rating, patients rated B markedly decreased", "setting": "[3]; [20]", "result": 0}, {"measurement": "Endoscopic improvement rating, patients rated C moderately decreased", "setting": "[3]; [20]", "result": 0}, {"measurement": "Endoscopic improvement rating, patients rated D slightly decreased", "setting": "[3]; [20]", "result": 0}, {"measurement": "Endoscopic improvement rating, patients rated E not changed", "setting": "[3]; [20]", "result": 0}, {"measurement": "Endoscopic improvement rating, patients rated F aggravated", "setting": "[3]; [20]", "result": 0}, {"measurement": "patients not healed after 8 weeks treatment", "setting": "[3]; both studies, 10 mg tablet orally once a day", "result": "Only one patient was not healed"}, {"measurement": "efficacy in the treatment of gastroesophageal reflux disease, overall", "setting": "[3]; both studies, healing obtained with a 4 week treatment", "result": "very effective"}]}
